Test results published in patent US5413915A (priority 1991, dated 1995).
Marks after values point to notes of the source that are not given here.

Key:
[1] = in vivo; cited from earlier work
[2] = in vivo; cited from earlier work; remark: listed apart in the source
Salmonella typhimurium = details: cited from earlier work
rat liver microsomes = format: biochemical; set-up: unit not given here

Compound | Tumorigen Activity [1] | Teratogen Activity [2] | Mutagenicity (Salmonella typhimurium) | Detector Response, threshold dose (rat liver microsomes) | Tumorigen Activity, assignment based on NCI/NTP carcinogenesis bioassay results [1] | Mutagenicity, direct-acting mutagen (Salmonella typhimurium)
ClCCCl [1,2-Dichloroethane] | + | - | + | 20 |  | 
C1COCCO1 [1,4-Dioxane] |  | - | - | 10 | + | 
Oc1ccccc1Cl [2-Chlorophenol] | + | - | - | < 1 |  | 
Oc1ccc2ccccc2c1 [2-Naphthol] | - | - |  | 20 |  | 
NC(N)=S [2-Thiourea] | + | + | + | 7 |  | 
Oc1cccc(Cl)c1 [3-Chlorophenol] | + | - | - | < 1 |  | 
Oc1ccc(Cl)cc1 [4-Chlorophenol] | + | - | + | < 1 |  | 
Oc1cccc2cccnc12 [8-Hydroxyquinoline] | + | - | + | 0.3 |  | 
CC(C)=O [Acetone] | - | - | - | > 50 |  | 
C=CC(N)=O [Acrylamide] | + | - |  | 0.2 |  | 
C=CC#N [Acrylonitrile] | + | + | + | 20 |  | 
O=C1c2ccccc2C(=O)c2ccccc21 [Anthraquinone] | - | - | - | 1-20 |  | 
CCNc1nc(Cl)nc(NC(C)C)n1 [Atrazine (ind.), Atrazine] | +^e | - | - | 0.05 |  | 
Cc1cc(C(C)(C)C)c(O)c(C(C)(C)C)c1 [BHT] | +/- | - | - | 200 |  | 
[Ba+2] [Barium(II)] | - | - | - | 20-100 |  | 
[Ca+2] [Calcium(II)] | +/- | - | - | 10 |  | 
CCOP(=S)(OCC)Oc1nc(Cl)c(Cl)cc1Cl [Chlorpyrifos (ind.), Chlorpyrifos] | - | + | - | 0.01 |  | 
N#CN [Cyanamid] | +^e | - | + | 30 |  | 
C[C@H](CCC(=O)O)[C@H]1CC[C@H]2[C@@H]3CC[C@@H]4C[C@H](O)CC[C@]4(C)[C@H]3C[C@H](O)[C@]12C [Deoxycholate] | - | + | - | 0.5 |  | 
CCOP(=S)(OCC)Oc1cc(C)nc(C(C)C)n1 [Diazinon (ind.), Diazinon] | - | + | - | 1-100 |  | 
CCN(CC)C(=S)S [Diethyldithiocarbamic acid] | +^t | + | - | 0.2 | - | 

Compound | Tumorigen Activity [1] | Teratogen Activity [2] | Mutagenicity (Salmonella typhimurium) | Detector Response, threshold dose (rat liver microsomes) | Tumorigen Activity, assignment based on NCI/NTP carcinogenesis bioassay results [1] | Mutagenicity, direct-acting mutagen (Salmonella typhimurium)
CCN(CC)N=O [Diethylnitrosamine] | + | + | + | 0.1-1 |  | 
c1ccc(Nc2ccccc2)cc1 [Diphenylamine] | - | + | - | 100 |  | 
[Dy+3] [Dysprosium(III)] | - | - | - | 5 |  | 
O=S1OCC2C(CO1)C1(Cl)C(Cl)=C(Cl)C2(Cl)C1(Cl)Cl (stereo not shown) [Endosulfan (ind.), Endosulfan] | +^b | + | - | 0.1 | - | 
CCOC(=O)c1ccc(O)cc1 [Ethyl p-Hydroxybenzoate] | - | + | - | 30 |  | 
NC=O [Formamide] | - | + | - | 100 |  | 
O=C(O)CNCP(=O)(O)O [Glyphosate (ind.), Glyphosate] | - | - | - | 0.3 |  | 
C[C@]12CCC(=O)C=C1CC[C@@H]1[C@@H]2[C@@H](O)C[C@@]2(C)[C@H]1CC[C@]2(O)C(=O)CO [Hydrocortisone] | - | + | - | 0.1 |  | 
NC(=O)CI [Iodoacetamide] | + | - |  | 0.1 |  | 
[La+3] [Lanthanum(III)] | - | - | - | 5 |  | 
Cl[C@H]1[C@H](Cl)[C@@H](Cl)[C@@H](Cl)[C@H](Cl)[C@H]1Cl [Lindane (USP), Lindane] | + | + | - | 0.2 |  | 
CCOC(=O)CC(SP(=S)(OC)OC)C(=O)OCC (stereo not shown) [Malathion (ind.), Malathion] | - | + | - | 0.1 |  | +
[Mn+2] [Manganese(II)] | + | + | - | 5 |  | 
C=CC(=O)NCNC(=O)C=C [Methylene(bis)acrylamide, Methylene(bis)-acrylamide] | - | - | - | < 2 |  | 
Cc1cc(O)ccc1O [Methylhydroquinone] | - | - | - | 30 |  | 
O=N[O-].[Na+] [NaNO2] | + | + | + | 0.1 |  | 
CC(C)C(C(=O)OC(C#N)c1cccc(Oc2ccccc2)c1)c1ccc(Cl)cc1 (stereo not shown) [Sumicidin (ind.), Sumicidin] | -? | -? |  | 0.5 |  | 
Lecithin [Lecithin, fresh] | - | - | - |  |  | 
Lecithin [Lecithin, oxidized] | + | - | + |  |  | 
Magnesium(II) | - | - | - |  |  | 
Triton X-100 | - | - | - |  |  | 
